From patent US20060120956A1, “Imaging agents comprising barbituric acid derivatives” (priority 2002, published 2006)
Where two headings read alike, the source gives them in different places.

Legend:
[1] = biological target: T1, MMP-9 (Homo sapiens, UniProt P14780); assay: In vitro metalloproteinase inhibition assay, fluorogenic substrate (method of Huang et al.); type: biochemical; conditions: fluorogenic substrate 1 μM, MMP 1 nM, inhibitor 1000 pM-100 μM
From the text: In Vitro Metalloproteinase Inhibition Assay
Target sequence in this assay (P14780 94-707): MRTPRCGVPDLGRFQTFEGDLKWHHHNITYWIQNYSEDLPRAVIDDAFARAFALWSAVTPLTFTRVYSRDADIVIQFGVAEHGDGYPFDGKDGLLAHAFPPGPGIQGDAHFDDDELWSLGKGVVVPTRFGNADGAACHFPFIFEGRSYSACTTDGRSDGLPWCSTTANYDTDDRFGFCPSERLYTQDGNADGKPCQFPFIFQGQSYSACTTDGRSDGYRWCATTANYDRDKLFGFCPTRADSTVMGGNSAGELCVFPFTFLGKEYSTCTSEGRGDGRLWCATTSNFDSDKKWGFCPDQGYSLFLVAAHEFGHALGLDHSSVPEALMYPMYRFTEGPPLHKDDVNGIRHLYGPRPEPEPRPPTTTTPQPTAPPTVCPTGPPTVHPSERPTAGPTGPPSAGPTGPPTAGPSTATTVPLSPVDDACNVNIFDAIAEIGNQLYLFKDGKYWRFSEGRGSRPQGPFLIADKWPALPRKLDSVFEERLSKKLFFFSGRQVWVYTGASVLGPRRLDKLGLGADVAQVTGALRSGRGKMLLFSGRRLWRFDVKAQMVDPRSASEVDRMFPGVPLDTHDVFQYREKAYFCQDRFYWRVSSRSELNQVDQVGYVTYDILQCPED

[2] = biological target: T2, MMP-2 (Homo sapiens, UniProt P08253); conditions: read-out: MMP-2 IC50; fluorogenic substrate 1 μM, MMP 1 nM, inhibitor 1000 pM-100 μM
T2 sequence (P08253 110-660): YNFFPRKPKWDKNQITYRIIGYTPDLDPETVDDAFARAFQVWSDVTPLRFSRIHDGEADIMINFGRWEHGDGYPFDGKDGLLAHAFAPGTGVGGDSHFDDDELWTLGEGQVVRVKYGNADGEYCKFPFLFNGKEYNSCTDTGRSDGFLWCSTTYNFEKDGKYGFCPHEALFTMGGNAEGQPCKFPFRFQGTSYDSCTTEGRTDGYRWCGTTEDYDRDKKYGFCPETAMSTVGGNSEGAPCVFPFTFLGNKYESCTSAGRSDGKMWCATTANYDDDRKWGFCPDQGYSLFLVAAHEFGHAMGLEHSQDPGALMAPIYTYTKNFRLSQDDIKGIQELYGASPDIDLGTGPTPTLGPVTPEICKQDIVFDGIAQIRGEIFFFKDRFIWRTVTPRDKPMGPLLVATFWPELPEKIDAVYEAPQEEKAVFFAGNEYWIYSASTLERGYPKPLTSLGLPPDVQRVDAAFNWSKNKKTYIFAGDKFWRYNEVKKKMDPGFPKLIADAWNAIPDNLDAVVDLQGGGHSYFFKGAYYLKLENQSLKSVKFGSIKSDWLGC

[3] = biological target: MMP-2 (Homo sapiens, UniProt P08253); assay: Biomol MMP-2 colourimetric assay kit AK-408 (thiopeptolide substrate); type: biochemical
Description: (§1) Additional In Vitro Metalloproteinase Inhibition Assay
(§2) Compounds were screened using the following commercially available Biomol assay kits:
MMP-2 colourimetric assay kit—Catalogue number AK-408,
(§3) Which are available from Affiniti Research Products Ltd. (Palatine House, Matford Court, Exeter, EX2 8NL, UK).
(§4) (a) Test Compound Preparation.
(§5) Inhibitors were provided in powdered form, and stored at 4° C. For each inhibitor a 1 mM stock solution in DMSO was prepared, dispensed into 20 μl aliquots and these aliquots stored at −20° C. The stock solution was diluted to give 8 inhibitor concentrations (recommended: […], 5 μM, 500 nM, 50 nM, 5 nM, 500 pM, 50 pM and 5 pM). Dilutions were made in the kit assay buffer. A five-fold dilution of the inhibitor stocks is made on addition to the assay wells, therefore final concentration range is from 10 μM to 1 pM.
(§6) (b) Experimental Procedure.
(§7) Details are provided with the commercial kit, but can be summarised as follows:
(§8) Prepare test compound dilutions as above,
(§9) Add assay buffer to plate,
(§10) Add test compounds to plate
(§11) Prepare standard kit inhibitor NNGH (see kit for dilution factor)
(§12) Add NNGH to control inhibitor wells
(§13) Prepare MMP enzyme (see kit for dilution factor)
(§14) Incubate plate at 37° C. for ˜15 min
(§15) Prepare thiopeptolide substrate (see kit for dilution factor)
(§16) Count every 2 min for 1 hr, 37° C., 414 nm on a Labsystems iEMS plate reader.

[4] = biological target: T1, MMP-9; assay: Biomol MMP-9 colourimetric assay kit AK-410 (thiopeptolide substrate); type: biochemical
Description: as §1, §2
Target sequence in this assay (P14780 107-444 limits assumed): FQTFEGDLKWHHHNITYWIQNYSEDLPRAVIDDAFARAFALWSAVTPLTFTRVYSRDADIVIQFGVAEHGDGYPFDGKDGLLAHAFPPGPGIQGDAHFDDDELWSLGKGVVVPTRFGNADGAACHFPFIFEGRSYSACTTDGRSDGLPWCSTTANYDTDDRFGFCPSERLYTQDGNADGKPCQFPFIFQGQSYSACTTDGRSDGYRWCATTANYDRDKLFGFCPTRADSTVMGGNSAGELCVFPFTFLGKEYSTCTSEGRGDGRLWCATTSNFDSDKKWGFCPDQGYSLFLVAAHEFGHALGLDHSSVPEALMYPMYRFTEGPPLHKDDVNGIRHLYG
MMP-9 colourimetric assay kit—Catalogue number AK-410,
as §3, §4, §5, §6, §7, §8, §9, §10, §11, §12, §13, §14, §15, §16

[5] = biological target: MMP-12 (Homo sapiens, UniProt P39900); assay: Biomol MMP-12 colourimetric assay kit AK-402 (thiopeptolide substrate); type: biochemical
MMP-12, sequence (P39900 106-268 limits assumed): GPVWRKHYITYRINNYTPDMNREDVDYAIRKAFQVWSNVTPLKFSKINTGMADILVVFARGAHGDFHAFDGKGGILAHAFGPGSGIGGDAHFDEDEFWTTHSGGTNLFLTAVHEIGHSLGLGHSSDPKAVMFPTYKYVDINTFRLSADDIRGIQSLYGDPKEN
Description: as §1, §2
MMP-12 colourimetric assay kit—Catalogue number AK-402,
as §3, §4, §5, §6, §7, §8, §9, §10, §11, §12, §13, §14, §15, §16

SMILES | IC50 [1] | IC50 [2] | Ki [3] | Ki [4] | further results
C[Si](C)(C)c1ccc(N2CCN(C3(c4ccc(Oc5ccc(Br)cc5)cc4)C(=O)NC(=O)NC3=O)CC2)cc1 |  |  |  |  | melting point: 205 to 210 °C
O=C1NC(=O)C(c2ccc(Oc3ccc(Br)cc3)cc2)(N2CCN(CCO)CC2)C(=O)N1 [Compound 2, 5-[4-(4-bromo-phenoxy)phenyl]-5-[4-(2-hydroxyethyl)piperazin-1-yl]-pyrimidine-2,4,6-trione, reference compound] | 4 nM | 9 nM |  |  | 
COc1ccc(Oc2ccc(C3(N4CCN(CCO)CC4)C(=O)NC(=O)NC3=O)cc2)cc1 [Compound 3, 5-[4-(2-hydroxyethyl)piperazin-1-yl]-5-[4 (4-methoxy-phenoxy)phenyl]-pyrimidine-2,4,6-trione, reference compound] | 6 nM | 9 nM |  |  | 
O=C1NC(=O)C(c2ccc(Oc3ccc(I)cc3)cc2)(N2CCN(CCO)CC2)C(=O)N1 [Compound 4, 5-[4-(2-Hydroxyethyl)piperazin-1-yl]-5-[4-(4-iodo-phenoxy)phenyl]-pyrimidine-2,4,6-trione] | 2 nM | 7 nM |  |  | 
O=C1NC(=O)C(c2ccc(Oc3ccc(Br)cc3)cc2)(N2CCN(CCCF)CC2)C(=O)N1 [Compound 7, 5-[4-(4-Bromophenoxy)phenyl]-5-[4-(3-fluoropropyl)-piperazin-1-yl)-pyrimidine-2,4,6-trione] |  |  | 11 nM | 2 nM | 
O=C1NC(=O)C(c2ccc(Oc3ccc(Br)cc3)cc2)(N2CCN(C(=O)CSCCCF)CC2)C(=O)N1 [Compound 9] |  |  | 5 nM | 0.3 nM | Ki [5]: 11 nM
CC(=NO)C(C)(C)NCCC(CCNC(=O)CCN1CCN(C2(c3ccc(Oc4ccc(Br)cc4)cc3)C(=O)NC(=O)NC2=O)CC1)CCNC(C)(C)C(C)=NO (stereo not drawn) [Compound 16, 3-(4-{5-[4-(4-Bromophenoxy)-phenyl]-2,4,6-trioxohexahydropyrmidin-5-yl}-piperazin-1-yl)N-{5-(2-hydroxylimino-1,1-dimethylpropylamino)-3-[2-(2-hydroxylamino-1,1-dimethylpropylamino)-ethyl]-pentyl}-propionamide] |  |  | 14 nM | 3 nM | 
CC(=NO)C(C)(C)NCCC(CCNC(=O)CCCC(=O)NCCN1CCN(C2(c3ccc(Oc4ccc(Br)cc4)cc3)C(=O)NC(=O)NC2=O)CC1)CCNC(C)(C)C(C)=NO (stereo not drawn) [Compound 17] |  |  | 29 nM | 10 nM | Ki ([5]; colourimetric kit, thiopeptolide substrate, 37° C., 414 nm, read-out: MMP-12 (Ki)): 157 nM
O=C1NC(=O)C(c2ccc(Oc3ccc(Br)cc3)cc2)(N2CCN(c3ccc(F)cc3)CC2)C(=O)N1 [Compound 20, 5-[4-(4-Bromo-phenoxy)phenyl]-5-[4-(4-fluorophenyl)piperazin-1-yl]-pyrimidine-2,4,6-trione] | 19 nM | 12 nM |  |  | 
O=C1NC(=O)C(Nc2ccc(I)cc2)(c2ccc(Oc3ccc(Br)cc3)cc2)C(=O)N1 [Compound 24, 5-[4-(4-Bromophenoxy)-phenyl]-5-(4-iodophenylamino)-pyrimidine-2,4,6-trione] |  |  | 45 nM | 20 nM | 
